# Marks after values point to notes of the source that are not given here.
# Columns and labels:
# Format in all cases: biochemical, Cryptococcus neoformans H99
# Conditions in all cases: modifier 10 mM (Triton X-100 0.1% w/v)
# [1] = tested on: membrane-associated phospholipase B (LPL/LPTA activities); assay: Radiometric assay, membrane-associated LPL/LPTA activities
# Method: (§1) Fungal isolates and media. […] Isolate H99 was kindly supplied by Dr. Gary Cox (Duke University Medical Center, Durham, N.C., USA), and subcultured onto Sabouraud dextrose agar (SDA) at 30° C.
# (§2) Cellular disruption to prepare membrane and cytosolic fractions. The cell pellet from the preparation of the supernatant, above, was also frozen at −70° C. After washing twice with imidazole buffer, it was disrupted in the presence of a protease inhibitor cocktail (P 8215 for fungal and yeast cells; 4-(2-aminoethyl)benzenesulfonyl fluoride hydrochloride, 100 mM, 1,10-phenanthroline, 500 mM, pepstatin A, 2.2 mM, E-64, 1.4 mM; Sigma) in a MiniBeadbeater-8 Cell Disrupter (MBB-8; Daintree Scientific, Tasmania, Australia) for three cycles of 1 min, alternating with a 1 min cooling period on ice. The homogenate was centrifuged at 14,000 g for 15 min to obtain the membrane (pellet) and the cytosolic (supernatant) fractions.
# (§3) Secreted LPL and LPTA activities were measured simultaneously in a reaction mixture containing 1-[^14C]palmitoyl lyso-PC (25,000 dpm) and carrier lyso-PC (final concentration 200 μM) in assay buffer. The reaction time was […] with 1 μg of total protein and LPL activity was measured by the rate of loss of 1-[^14C]palmitoyl lyso-PC with release of radiolabelled fatty acids. LPTA activity was estimated from the rate of formation of radiolabelled PC.
# (§4) All reactions were terminated by adding 0.5 mL of chloroform:methanol (2:1 v/v). The reaction products were extracted by the method as disclosed in Bligh, E. C. and W. J. Dyer. 1959 ‘A rapid method of total lipid extraction and purification.’ Can. J. Biochem. Physiol. 37:911-917, separated by TLC and quantified as previously described. In the case of PLC activity, the TLC plates were developed in petroleum ether (BP 60-80° C.): diethyl ether: acetic acid (90:15:1, v/v/v) instead of chloroform:methanol:water (65:25:4, v/v/v).
# (§5) All experiments were carried out in duplicate or triplicate. The effects of pH on the various phospholipase activities were measured using 50 mM final concentration of imidazole-acetate buffer (pH range 3-5), MES buffer (pH range 6-8) and glycine buffer (pH 9-10). Controls for non-enzymic breakdown of substrates were included at all pH values. Cations, Triton X-100 and metal chelators were made up as stock solutions in water and diluted to the final concentration in the appropriate assay buffer.
# (§6) Preparation of inhibitors and use in assays. The following compounds were tested (for structures, see FIG. 2): compound 1, 1,12-bis(tributylphosphonium)dodecane dibromide (Fluka AG, Buchs, Switzerland); compound 2, 1,10-bis(tributylammonium)-decane dibromide; compound 3, 1,12-bis(tributylammonium)do-decane dibromide (both synthesised in-house); compound 4, 1,10-bis(trimethylammonium)decane dibromide [“decamethonium”] (Sigma, St. Louis Mo., USA). All compounds were prepared as stock solutions of 700 μM in assay buffer containing 5 mM EDTA, which was then diluted serially with buffer to obtain solutions of 70, 7, 0.7 and 0.07 μM. In each assay, 45 μL of these solutions was used, and the final volume of 125 μL was made up of substrate, enzyme and buffer. The radiometric assay was carried out as above. Inhibition was calculated as the percent of substrates (DPPC or Lyso-PC) remaining in the case of PLB and LPL activities, or of DPPC produced, in the case of the LPTA activity. The amounts converted, or produced, in the inhibitor-free control were normalised to 100%, and the inhibition calculated against it. All assays were done in triplicate.
# (§7) Under these conditions only PLB, LPL and LPTA activities (both secreted and cell-associated) were measured. Initially, compounds deemed to be potential inhibitors were assayed at 25 and 250 μM.
# [2] = tested on: cytosolic phospholipase B (PLB activity); assay: Radiometric assay, cytosolic PLB activity
# Method: as §1, §2
# (§8) Radiometric assay method for phospholipases. Enzyme activities were measured as described previously in a final volume of 125 μL at 37° C. For the determination of secreted PLB activity, carrier dipalmitoyl phosphatidylcholine (DPPC, final concentration 800 μM) and 1,2-di[1-^14C] palmitoyl phosphatidylcholine (20,000 dpm) were dried under nitrogen and suspended in 125 mM imidazole acetate buffer (assay buffer, pH 4.0) by sonication using a Branson 450 sonifier. The reaction time was 22 min, using 1 μg total protein and PLB activity was determined by the rate of decrease of the radiolabelled PC substrate, with appearance of the label in free fatty acid. This assay also simultaneously allows for the determination of phospholipase A, C and D activities. These activities were measured by the appearance of radiolabel from PC in Lyso PC, diacylglycerol and phosphatidic acid, respectively.
# as §4, §5
# (§9) Preparation of inhibitors and use in assays. The following compounds were tested (for structures, see FIG. 2): compound 1, 1,12-bis(tributylphosphonium)dodecane dibromide (Fluka AG, Buchs, Switzerland); compound 2, 1,10-bis(tributylammonium)-decane dibromide; compound 3, 1,12-bis(tributylammonium)do-decane dibromide (both synthesised in-house); compound 4, 1,10-bis(trimethylammonium)decane dibromide [“decamethonium”] (Sigma, St. Louis Mo., USA). All compounds were prepared as stock solutions of 700 μM in assay buffer containing 5 mM EDTA, which was then diluted serially with buffer to obtain solutions of 70, 7, 0.7 and 0.07 μM. In each assay, 45 μL of these solutions was used, and the final volume of 125 μL was made up of substrate, enzyme and buffer. The radiometric assay was carried out as above.
# [3] = tested on: membrane-associated phospholipase B (PLB activity); assay: Radiometric assay, membrane-associated PLB activity
# Method: as §1, §2, §8, §4, §5, §9
# [4] = tested on: cytosolic phospholipase B (LPL/LPTA activities); assay: Radiometric assay, cytosolic LPL/LPTA activities
# Method: as §1, §2, §3, §4, §5, §6, §7
molecule,measurement,setting,value
[Cl][Fe]([Cl])[Cl] [FeCl3],"Membrane-associated LPL activity, percentage of the control",[1]; pH 4.0,97%
same,"Membrane-associated LPTA activity, percentage of the control",[1]; pH 4.0,75%
same,"Membrane-associated LPL activity, percentage of the control",[1]; pH 7.0,61* %
same,"Membrane-associated LPTA activity, percentage of the control",[1]; pH 7.0,45* %
same,"Cytosolic PLB activity, percentage of the control",[2]; pH 4.0,79%
same,"Cytosolic PLB activity, percentage of the control",[2]; pH 7.0,61%
same,"Membrane-associated PLB activity, percentage of the control",[3]; pH 4.0,92%
same,"Membrane-associated PLB activity, percentage of the control",[3]; pH 7.0,2* %
same,"Cytosolic LPL activity, percentage of the control",[4]; pH 4.0,81%
same,"Cytosolic LPTA activity, percentage of the control",[4]; pH 4.0,78%
same,"Cytosolic LPL activity, percentage of the control",[4]; pH 7.0,22%
same,"Cytosolic LPTA activity, percentage of the control",[4]; pH 7.0,21%
[Ca+2] [Calcium],"Membrane-associated LPL activity, percentage of the control",[1]; pH 4.0,100%
same,"Membrane-associated LPTA activity, percentage of the control",[1]; pH 4.0,96%
same,"Membrane-associated LPL activity, percentage of the control",[1]; pH 7.0,166* %
same,"Membrane-associated LPTA activity, percentage of the control",[1]; pH 7.0,140* %
same,"Cytosolic PLB activity, percentage of the control",[2]; pH 4.0,100%
same,"Cytosolic PLB activity, percentage of the control",[2]; pH 7.0,591* %
same,"Membrane-associated PLB activity, percentage of the control",[3]; pH 4.0,83%
same,"Membrane-associated PLB activity, percentage of the control",[3]; pH 7.0,533* %
same,"Cytosolic LPL activity, percentage of the control",[4]; pH 4.0,100%
same,"Cytosolic LPTA activity, percentage of the control",[4]; pH 4.0,100%
same,"Cytosolic LPL activity, percentage of the control",[4]; pH 7.0,236%
same,"Cytosolic LPTA activity, percentage of the control",[4]; pH 7.0,206%
[Mg+2] [Magnesium],"Membrane-associated LPL activity, percentage of the control",[1]; pH 4.0,97%
same,"Membrane-associated LPTA activity, percentage of the control",[1]; pH 4.0,91%
same,"Membrane-associated LPL activity, percentage of the control",[1]; pH 7.0,145* %
same,"Membrane-associated LPTA activity, percentage of the control",[1]; pH 7.0,123* %
same,"Cytosolic PLB activity, percentage of the control",[2]; pH 4.0,100%
same,"Cytosolic PLB activity, percentage of the control",[2]; pH 7.0,477* %
same,"Membrane-associated PLB activity, percentage of the control",[3]; pH 4.0,79%
same,"Membrane-associated PLB activity, percentage of the control",[3]; pH 7.0,467* %
same,"Cytosolic LPL activity, percentage of the control",[4]; pH 4.0,73%
same,"Cytosolic LPTA activity, percentage of the control",[4]; pH 4.0,70%
same,"Cytosolic LPL activity, percentage of the control",[4]; pH 7.0,96%
same,"Cytosolic LPTA activity, percentage of the control",[4]; pH 7.0,85%
"O=C(O)CN(CCN(CC(=O)O)CC(=O)O)CC(=O)O [EDTA, ethylenediaminetetraacetic acid]","Membrane-associated LPL activity, percentage of the control",[1]; pH 4.0,98%
same,"Membrane-associated LPTA activity, percentage of the control",[1]; pH 4.0,94%
same,"Membrane-associated LPL activity, percentage of the control",[1]; pH 7.0,96%
same,"Membrane-associated LPTA activity, percentage of the control",[1]; pH 7.0,100%
same,"Cytosolic PLB activity, percentage of the control",[2]; pH 4.0,100%
same,"Cytosolic PLB activity, percentage of the control",[2]; pH 7.0,100%
same,"Membrane-associated PLB activity, percentage of the control",[3]; pH 4.0,87%
same,"Membrane-associated PLB activity, percentage of the control",[3]; pH 7.0,67%
same,"Cytosolic LPL activity, percentage of the control",[4]; pH 4.0,100%
same,"Cytosolic LPTA activity, percentage of the control",[4]; pH 4.0,100%
same,"Cytosolic LPL activity, percentage of the control",[4]; pH 7.0,30%
same,"Cytosolic LPTA activity, percentage of the control",[4]; pH 7.0,32%
Triton X-100,"Membrane-associated LPL activity, percentage of the control",[1]; pH 4.0,71%
same,"Membrane-associated LPTA activity, percentage of the control",[1]; pH 4.0,52%
same,"Membrane-associated LPL activity, percentage of the control",[1]; pH 7.0,4* %
same,"Membrane-associated LPTA activity, percentage of the control",[1]; pH 7.0,2* %
same,"Cytosolic PLB activity, percentage of the control",[2]; pH 4.0,54* %
same,"Cytosolic PLB activity, percentage of the control",[2]; pH 7.0,59%
same,"Membrane-associated PLB activity, percentage of the control",[3]; pH 4.0,19%
same,"Membrane-associated PLB activity, percentage of the control",[3]; pH 7.0,33* %
same,"Cytosolic LPL activity, percentage of the control",[4]; pH 4.0,62%
same,"Cytosolic LPTA activity, percentage of the control",[4]; pH 4.0,39%
same,"Cytosolic LPL activity, percentage of the control",[4]; pH 7.0,0.9%
same,"Cytosolic LPTA activity, percentage of the control",[4]; pH 7.0,0%
"O=C(O)CN(CCOCCOCCN(CC(=O)O)CC(=O)O)CC(=O)O [EGTA, ethyleneglycoldiamine tetraacetic acid]","Membrane-associated LPL activity, percentage of the control",[1]; pH 4.0,100%
same,"Membrane-associated LPTA activity, percentage of the control",[1]; pH 4.0,90%
same,"Membrane-associated LPL activity, percentage of the control",[1]; pH 7.0,100%
same,"Membrane-associated LPTA activity, percentage of the control",[1]; pH 7.0,100%
same,"Cytosolic PLB activity, percentage of the control",[2]; pH 4.0,100%
same,"Cytosolic PLB activity, percentage of the control",[2]; pH 7.0,163%
same,"Membrane-associated PLB activity, percentage of the control",[3]; pH 4.0,77%
same,"Membrane-associated PLB activity, percentage of the control",[3]; pH 7.0,200%
same,"Cytosolic LPL activity, percentage of the control",[4]; pH 4.0,86%
same,"Cytosolic LPTA activity, percentage of the control",[4]; pH 4.0,88%
same,"Cytosolic LPL activity, percentage of the control",[4]; pH 7.0,26%
same,"Cytosolic LPTA activity, percentage of the control",[4]; pH 7.0,29%

# From patent US7947854B2, “Bis-cationic compounds and use thereof” (The University of Sydney, priority 2003, dated 2011)
